Experimental data taken from US12083084B2, “Method for enhancing energy production and metabolism in cells” (REPLICON HEALTH OY, priority 2013, dated 2024).
Values joined by “and” are separate entries in the source; they are usually repeats but may differ in a detail not shown here. Equal entries are not always repeated. “Also recorded” adds a separate entry of the source.

Legend:
[1] = system: primary human hepatocytes; test: Cell viability by LDH release (CytoTox-One) in primary human hepatocytes; format: cell-based
Method: Primary human hepatocytes were purchased from Celsis In Vitro Technologies (1450 South Rolling Road Baltimore, MD 21227, USA). […] According to the information provided by the Celsis, hepatocytes from each donor should have at least 70% viability and more than 5 million viable cells. The medium for the culture of hepatocytes was provided by Celsis. They were InVitroGRO CP (for plating) medium (Z99029) and InVitroGRO HI (for incubation) medium (Z99009). Antibiotics (Torpedo Antibiotics Mix, Z990007) were also from Celsis. The thaw, plating and culture of cells were carried out according to the instruction provided by the Celsis In Vitro Technologies.
For the measurement of cell viability after treatment of test compound, CytoTox-One Homogeneous Membrane Integrity Assay kit (Promega, G7891) was used. The CytoTox-One Assay is a rapid fluorescent measure of the release of lactate dehydrogenase (LDH) from cells with a damaged membrane. The number of […] cells correlates to the fluorescence intensity determined by a fluorescence plate reader (Hidex Chameleon V multiplate reader, Hidex Oy, Turku, Finland) with excitation 544 nm and emission 590 nm. For the measurement of cellular reactive oxygen species (ROS), DCFDA Cellular ROS Detection Assay Kit from Abcam (ab113851) was used. Reactive oxygen species (ROS) assay kit (ab113851) uses the cell permeant reagent 2′,7′-dichlorofluorescein diacetate (DCFDA), a fluorogenic dye that measures hydroxyl, peroxyl and other ROS activity with the cell. The activity of ROS was measured by a fluorescence plate reader (Hidex) with excitation/emission wavelengths of 485 nm/535 nm.
The culture of primary hepatocytes was carried out based on the instructions provided by Celsis. After thawing, the cells were suspended in InVitroGRO CP medium. Thereafter the viability of cells was determined using the Trypan Blue exclusion method. Then the concentration of cells was adjusted using InVitroGRO CP medium, so about 30000-35000 cells/100 μl/well can be seeded in collagen I coated 96 well plate (BD, 734-0248).
After seeding, the cells were cultured overnight in the cell culture incubator (Sanyo MCO 18) at atmosphere of 95% air, 5% CO2 at 37° C. Thereafter, the culture medium for the cells was changed to InVitroGRO Hi (Hi Medium) containing test compound (D-glyceric acid calcium salt dehydrate) at the concentrations of 0, 0.2, 2 and 20 μg/ml (study 1, Table 1.1.1) and 0, 0.4, 2 and 10 μg/ml (study 2, Table 1.1.2).
After 24 h (in study 1) and 20 h (in studies 2-4) incubation medium was renewed. Second renewal of the incubation medium occurred at 48 h in study 1 and at 40 h in other studies. ROS and LDH were measured after 1.5-2 hours after last change of the medium, i.e. in a situation with moderate metabolic stress.
The measurement of LDH from medium (leaked LDH) and from cell and medium (total LDH) was carried out according to the instruction provided by the Promega (G7891). The plate was incubated at an incubator to achieve a temperature of 22° C. Thereafter, equal volume of CytoTox-ONE Reagent to cell culture medium (100 μl) was added to each well and mix for 30 seconds. Then they were incubated for 10 min at 22° C., and then 50 μl of Stop Solution was added to each well. After gentle mixing, the fluorescence signal was measured at an excitation wavelength of 560 nm and emission wavelength of 590 nm using the Hidex Chameleon V multiplate reader (Hidex Oy, Turku, Finland).
For the total LDH measurement, all the steps are same except a 2 μl of Lysis Solution (per 100 μl original volume) will be added to the each well to lyse the cells before CytoTox-ONE Reagents will be added.
For the LDH and ROS assays, individual values of each measurement were stored and average value of fluorescence signals of various repeats of each treatment at studied time point were calculated and compared. […] Viability (LDH) measurements contained 4-6 repeats depending on the study. […]

[2] = Plasma sample analyses on PYR, ALA, LAC and NO; format: in vivo, human
Method: As mentioned above also plasma samples were collected from S1 and S9, at 0 h and 1 h both in 12 h and 4.5 day test, i.e. 16 observations were gathered with either DGAcs or zero control situations. Additionally in statin group (S10 and S11) 2×2 measurements were done. Altogether there were 20 observations and, thus 10 differences between control and DGAcs administration can be calculated. Pyruvate concentrations were measured using Pyruvate Assay Kit from Sigma (MAK071 Sigma). Alanine concentrations were measured using Sigma Alanine Assay Kit (MAK001). Lactate concentrations were measured using Sigma Lactate Assay Kit (MAK064). And finally nitric oxide (NO) concentrations were measured using OxiSelect™ In Vitro Nitric Oxide (Nitrite/Nitrate) Assay Kit from Nordic Biosite Oy.

rat cortical neurons = test: Protection against NMDA-induced excitotoxity; format: cell-based
Method: Cell culture. Cortical neurons were dissected from P1 rats and cultured in 96-well plates up to 7 days in the medium containing: neurobasal medium, 1.5% B27 supplement, 1 mM L-glutamine, penicillin/streptomycin.
Cell Viability/Cytotoxicity. Cell Viability was Detected by LDH Tests Like in Examples 1.1-1.2.
Cell treatment: concentration of DGAcs (10, 50 and 100 μg/ml) was added into cell culture medium at 4 DIV. After 24 h (at 5 DIV) 25% of medium was changed to fresh containing 1.5× concentration of DGAcs. Same treatment (change 25% with 1.5× concentration) was repeated at 6 DIV. The cells were transferred into Mg^2+-free Locke's buffer containing the same concentrations of DGAcs immediately before imaging experiments (at 7 DIV). For controls the same amount of medium was changed without addition of DGAcs.
In analyzing the results from the test set up starting at 7 DIV with 1 h NMDA stimulation (and 23 h follow up period), separate viability loss caused by CR can be taken into account by indexing 25 μM NMDA and 50 μM NMDA groups with the results of 0 NMDA control (see FIG. 14a). […] Even without correction for CR induced viability loss, DGAcs treatment induces very clear protection against NMDA-induced excitotoxity in 50 μM NMDA group (see FIG. 14b: “Viability after 24 hours with 1 h NMDA stimulation, indexed to 0 NMDA”)

[3] = average of measurements 1-10, vs zero control
[4] = healthy volunteer group only, S1 and S9

Row | SMILES | viability compared to 0 dose ([1]; donor alpha, 0.4 DGA dose, Hi Medium+palmitic acid, FIG. 10c) | hepatocytes viability increased in some cases by ([1]; donor alpha, FIG. 10c) | viability of cells increased on average by ([1]; primary human hepatocytes) | decline in NO ([2]; healthy individuals) | increase of plasma/blood pyruvate levels ([2]; summary statement, humans, Example 2.3.3) | excitotoxity repetition by the private CRO (rat cortical neurons; confirmatory study, in line with first results) | viability compared to 0 dose (in words) ([1]; primary human hepatocytes, standard treatment, moderate metabolic stress) | increase of plasma pyruvate ([2]; S1 and S9, 1 hour after administering 75 000 mg of glucose) | decline in NO ([2]; all measurements, vs control) | Average Change of the Concentration, plasma Alanine [2, 3] | Average Change of the Concentration, plasma Nitric Oxide [2, 3] | Average Change of the Concentration, plasma Pyruvate [2, 3] | Average Change of the Concentration, plasma Lactate ([2]; average of measurements, vs zero control) | Average Change of the Concentration, plasma Nitric Oxide (BMI < 25) ([2]; average, subjects with BMI < 25, vs zero control) | decrease of plasma lactate [2, 4] | increase of plasma pyruvate [2, 4] | decrease of plasma/blood lactate ([2]; summary statement, humans, compared to control, Example 2.3.3) | protection against NMDA-induced excitotoxity (LDH viability) (rat cortical neurons; 25 μM NMDA and 50 μM NMDA groups, 1 h NMDA at 7 DIV + 24 h, indexed to 0 NMDA)
1 | O=C(O)[C@H](O)CO [DGA, D-glyceric acid] | statistically significant decrease in viability; also recorded: decline is statistically significant | 40-60% | 5-10% | 13% | 20-25% and 25% | not statistically significant | – | – | – | – | – | – | – | – | – | – | – | –
2 | O.O.O=C([O-])[C@H](O)CO.O=C([O-])[C@H](O)CO.[Ca+2] [DGAcs, D-glyceric acid, calcium salt dehydrate] | – | – | – | – | – | – | modestly increase the viability | ~20% | approximately 10% | 3.5% | −9.9% | 25.9% | −31.9% | −13.4% | ~38% | approximately 25% | 31.9% and 30% | very clear and significant protection
